Where two headings read alike, the source gives them in different places. Numbered stars: 1 amine (or outer) side, 2 acyl side, 3 side chain; on linkers, the order of the positions; unused ones are H or OH. Bridge positions count the residues as written; N and C are the ends. Square brackets hold non-standard residues; d marks the D form. Side chains are listed from the residue outwards. Peptide text beside a SMILES is read from it. * marks the point of attachment. CH2CON(CH2CH2)2NCH2COOH = O=C(O)CN1CCN(C(=O)C*)CC1; NMePhe(4-COOH) = CN[C@@H](Cc1ccc(C(=O)O)cc1)C(=O)O; X1 = O=C([C@H](Cc1cccc(C(=O)[*:3])c1)N[*:1])[*:2]; Nle(6-morpholino) = N[C@@H](CCCCN1CCOCC1)C(=O)O; Phe(3-COOH) = N[C@@H](Cc1cccc(C(=O)O)c1)C(=O)O; Trp(7-aza) = N[C@@H](Cc1c[nH]c2ncccc12)C(=O)O; NH(CH2CH2O)8Me = COCCOCCOCCOCCOCCOCCOCCOCCN*; NMePhe(3-Cl) = CN[C@@H](Cc1cccc(Cl)c1)C(=O)O; Piperazinyl(4-CH2COOH) = O=C(O)CN1CCN(*)CC1; 3Pal(6-NH2) = Nc1ccc(C[C@H](N)C(=O)O)cn1; NMeW = CN[C@@H](Cc1c[nH]c2ccccc12)C(=O)O; Lys(N3) = [N-]=[N+]=NCCCC[C@H](N)C(=O)O; NMeY = CN[C@@H](Cc1ccc(O)cc1)C(=O)O; Nva(3-Et) = CCC(CC)[C@H](N)C(=O)O; NMeF = CN[C@@H](Cc1ccccc1)C(=O)O; 4Pal = N[C@@H](Cc1ccncc1)C(=O)O; PEG4 = NCCOCCOCCOCCOCCC(=O)O; Carboxymethyl = O=C(O)C*; CO = O=C([*:1])[*:2]
Target: human transferrin receptor (hTfR) (Homo sapiens, UniProt P02786)
Assay: SPR measurement under pH 7.4 conditions (Biacore T200, CM3 chip, hTfR captured by His Tag antibody)
Assay type: binding
Conditions: SPR, pH 7.4
Protocol: Molecular interactions between the synthesized peptides and the transferrin receptor (hTfR) were evaluated by surface plasmon resonance (SPR) using the following method. The specific assay procedure is described below.
An CM3 sensor chip (Cytiva) was inserted into BiacoreT200 (Cytiva), then a priming operation was performed three times by using a running buffer: HBS-P+, pH7.4 (Cytiva), and an equilibrium state was created at a flow rate of […]. Ligand immobilization was performed at a flow rate of 10 µL/min. After mixing 50 µL each of 60 mM EDC solution (Cytiva) and 650 mM NHS solution (Cytiva), the mixture was reacted at a flow rate of 10 µL/min for 420 seconds. 150 µL of […] THE His Tag Antibody, mAb, Mouse (GenScript) was prepared by diluting with 10 mM acetic acid solution (pH 5.0), and reacted at a flow rate of 10 µL/ min for 420 seconds. Then, THE His Tag Antibody, mAb, Mouse (GenScript) was immobilized as a capture molecule on the CM3 sensor chip. After immobilization, capping was performed by reacting with 1.0 M ethanolamine solution (Cytiva) at a flow rate of 10 µL/min for 420 seconds. 300 nM hTfR was captured at a flow rate of 10 µL/min, a peptide solution prepared at 10 mM in DMSO was diluted with running buffer to achieve a final concentration of 10 µM, and peptide solutions at 250 nM, 125 nM, 62.5 nM, 25 nM, and 12.5 nM were prepared. . The peptide samples were reacted at a flow late of 30 µL/min for 120 seconds, followed by dissociation for 600 seconds. The kinetics of the peptide against hTfR was obtained by SPR measurement for the above samples.
The kinetic evaluation model was single-cycle kinetics, and curve fitting was performed using Biacore T200 Evaluation Software Version 3.0 (Cytiva). The binding of the peptide to hTfR was evaluated by performing curve fitting on the obtained sensorgram by the least squares method and obtaining the kon value, the koff value, and the KD value.

[1] = Table 2-2, read-out: hTfR SPR pH7.4 KD
[2] = Table 2-1-2, read-out: hTfR SPR pH7.4 KD(n M)

Chain of human transferrin receptor (hTfR) (P02786 whole entry): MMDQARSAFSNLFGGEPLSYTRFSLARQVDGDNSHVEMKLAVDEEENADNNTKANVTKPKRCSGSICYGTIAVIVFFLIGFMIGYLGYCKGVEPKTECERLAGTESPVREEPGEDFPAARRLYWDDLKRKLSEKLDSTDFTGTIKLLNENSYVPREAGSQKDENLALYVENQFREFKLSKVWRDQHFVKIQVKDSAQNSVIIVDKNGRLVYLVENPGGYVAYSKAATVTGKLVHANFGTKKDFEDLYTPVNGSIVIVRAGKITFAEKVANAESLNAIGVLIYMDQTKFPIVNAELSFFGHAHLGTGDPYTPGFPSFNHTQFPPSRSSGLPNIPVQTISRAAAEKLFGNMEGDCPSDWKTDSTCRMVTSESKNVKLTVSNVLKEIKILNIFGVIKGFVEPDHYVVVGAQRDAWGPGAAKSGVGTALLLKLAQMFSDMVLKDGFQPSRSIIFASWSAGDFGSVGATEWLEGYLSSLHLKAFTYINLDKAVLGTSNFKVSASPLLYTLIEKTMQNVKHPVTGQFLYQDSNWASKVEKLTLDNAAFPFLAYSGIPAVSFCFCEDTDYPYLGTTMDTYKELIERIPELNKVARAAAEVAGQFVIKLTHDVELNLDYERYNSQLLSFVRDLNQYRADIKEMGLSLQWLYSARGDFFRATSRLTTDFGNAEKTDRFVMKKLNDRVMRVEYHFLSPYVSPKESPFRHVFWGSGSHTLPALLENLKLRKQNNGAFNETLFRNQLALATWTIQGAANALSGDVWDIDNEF

Row | Kd [1] [nM] | Kd [2] [nM] | SMILES | further results
1 | 515 | – | CC[C@H](C)[C@@H]1NC(=O)[C@H](Cc2ccc(OC)cc2)NC(=O)[C@H](Cc2ccc(N)nc2)NC(=O)[C@H](CC(N)=O)NC(=O)[C@H](Cc2cnc3ccccn23)NC(=O)[C@H](C(C)C)NC(=O)[C@H](Cc2ccccc2)N(C)C(=O)[C@H](C(C)C)NC(=O)[C@H](C)NC(=O)CSC[C@@H](C(=O)NCC(=O)N[C@H](CCC(=O)O)C(=O)N[C@H](CCC(=O)O)C(=O)N[C@H](CCC(=O)O)C(=O)N[C@H](CO)C(=O)N[C@H](CO)C(=O)N[C@@H](CCCCN=[N+]=[N-])C(N)=O)NC(=O)[C@H](Cc2ccc(O)cc2)N(C)C(=O)[C@H](Cc2ccncc2)NC(=O)[C@H](CCCNC(=N)N)NC(=O)[C@H](CCCNC(=N)N)NC(=O)[C@H]([C@@H](C)CC)NC1=O [compound 202] | –
2 | – | 16 | CC[C@H](C)[C@@H]1NC(=O)[C@H](Cc2ccc(OCC(=O)N3CCN(CC(=O)O)CC3)cc2)NC(=O)[C@H](Cc2ccc(N)nc2)NC(=O)[C@H](CC(N)=O)NC(=O)[C@H](Cc2c[nH]c3ncccc23)NC(=O)[C@H](C(C)C)NC(=O)[C@H](Cc2cccc(Cl)c2)N(C)C(=O)[C@H](C(C)C)NC(=O)[C@H](C)NC(=O)CSC[C@@H](C(=O)NCCOCCOCCOCCOCCC(N)=O)NC(=O)[C@H](Cc2ccc(O)cc2)N(C)C(=O)[C@H](Cc2ccncc2)NC(=O)[C@H](CCCNC(=N)N)NC(=O)[C@H](CCCCNC(=O)N2CCN(CC(=O)O)CC2)NC(=O)[C@H]([C@@H](C)CC)NC1=O [compound 156] ({CH2CO}-AV[NMePhe(3-Cl)]V[Trp(7-aza)]N[3Pal(6-NH2)]Y(CH2CON(CH2CH2)2NCH2COOH)IIK([CO-Piperazinyl(4-CH2COOH)])R[4Pal][NMeY]C[PEG4]-NH2; thioether N-15) | –
3 | – | – | CCC(CC)[C@@H]1NC(=O)[C@H](Cc2ccc(OCC(=O)O)cc2)NC(=O)[C@H](Cc2ccc(N)nc2)NC(=O)[C@H](CC(N)=O)NC(=O)[C@H](Cc2c[nH]c3ccccc23)NC(=O)[C@H](C(C)C)NC(=O)[C@H](Cc2cccc(Cl)c2)N(C)C(=O)[C@H](C(C)C)NC(=O)[C@H](C)NC(=O)CSC[C@@H](C(=O)NCCOCCOCCOCCOCCC(N)=O)NC(=O)[C@H](Cc2ccc(C(=O)O)cc2)N(C)C(=O)[C@H](Cc2cccc(C(=O)O)c2)NC(=O)[C@H](CCCNC(=N)N)NC(=O)[C@H](CCC(=O)NCCOCCOCCOCCOCCOCCOCCOCCOC)NC(=O)[C@H]([C@@H](C)CC)NC1=O [compound 85] ({CH2CO}-AV[NMePhe(3-Cl)]VWN[3Pal(6-NH2)]Y(Carboxymethyl)[Nva(3-Et)]IE(NH(CH2CH2O)8Me)R[Phe(3-COOH)][NMePhe(4-COOH)]C[PEG4]-NH2; thioether N-15) | Kd (read-out: hTfR SPR pH7.4 KD): 234 nM
4 | 212 | – | CC[C@H](C)[C@@H]1NC(=O)[C@H](Cc2ccc(OC)cc2)NC(=O)[C@H](Cc2ccc(N)nc2)NC(=O)[C@H](CC(N)=O)NC(=O)[C@H](Cc2cnc3ccccn23)NC(=O)[C@H](C(C)C)NC(=O)[C@H](Cc2ccccc2)N(C)C(=O)[C@H](C(C)C)NC(=O)[C@H](C)NC(=O)CSC[C@@H](C(=O)NCC(=O)N[C@H](CCC(=O)O)C(=O)N[C@H](CCC(=O)O)C(=O)N[C@H](CCC(=O)O)C(=O)N[C@H](CO)C(=O)N[C@H](CO)C(=O)N[C@@H](CCCCN=[N+]=[N-])C(N)=O)NC(=O)[C@H](Cc2ccc(C(=O)O)cc2)N(C)C(=O)[C@H](Cc2ccncc2)NC(=O)[C@H](CCCNC(=N)N)NC(=O)[C@H](CCCNC(=N)N)NC(=O)[C@H]([C@@H](C)CC)NC1=O [compound 201] | –
5 | – | 20.8 | CC[C@H](C)[C@@H]1NC(=O)[C@H](Cc2ccc(OCC(=O)N3CCN(CC(=O)O)CC3)cc2)NC(=O)[C@H](Cc2ccc(N)nc2)NC(=O)[C@H](CC(N)=O)NC(=O)[C@H](Cc2cn(CC(=O)O)c3ccccc23)NC(=O)[C@H](C(C)C)NC(=O)[C@H](Cc2cccc(Cl)c2)N(C)C(=O)[C@H](C(C)C)NC(=O)[C@H](C)NC(=O)CSC[C@@H](C(=O)NCCOCCOCCOCCOCCC(N)=O)NC(=O)[C@H](Cc2ccc(O)cc2)N(C)C(=O)[C@H](Cc2ccncc2)NC(=O)[C@H](CCCNC(=N)N)NC(=O)[C@H](CCC(=O)NCCOCCOCCOCCOCCOCCOCCOCCOC)NC(=O)[C@H]([C@@H](C)CC)NC1=O [compound 160] | –
6 | – | 15 | CC[C@H](C)[C@@H]1NC(=O)[C@H](Cc2ccc(OCC(=O)N3CCN(CC(=O)O)CC3)cc2)NC(=O)[C@H](Cc2ccc(N)nc2)NC(=O)[C@H](CC(N)=O)NC(=O)[C@H](Cc2c[nH]c3ncccc23)NC(=O)[C@H](C(C)C)NC(=O)[C@H](Cc2cccc(Cl)c2)N(C)C(=O)[C@H](C(C)C)NC(=O)[C@H](C)NC(=O)CSC[C@@H](C(=O)NCCOCCOCCOCCOCCC(N)=O)NC(=O)[C@H](Cc2ccc(O)cc2)N(C)C(=O)[C@H](Cc2ccncc2)NC(=O)[C@H](CCCCN2CCOCC2)NC(=O)[C@H](CCCCNC(=O)N2CCN(CC(=O)O)CC2)NC(=O)[C@H]([C@@H](C)CC)NC1=O [compound 157] ({CH2CO}-AV[NMePhe(3-Cl)]V[Trp(7-aza)]N[3Pal(6-NH2)]Y(CH2CON(CH2CH2)2NCH2COOH)IIK([CO-Piperazinyl(4-CH2COOH)])[Nle(6-morpholino)][4Pal][NMeY]C[PEG4]-NH2; thioether N-15) | –
7 | – | – | CC[C@H](C)[C@@H]1NC(=O)[C@H](Cc2ccc(O)cc2)NC(=O)[C@H](Cc2ccc(O)cc2)NC(=O)[C@H](CC(N)=O)NC(=O)[C@H](Cc2c[nH]c3ccccc23)N(C)C(=O)[C@H](C(C)C)NC(=O)[C@H](Cc2ccccc2)N(C)C(=O)[C@H](C(C)C)NC(=O)[C@H](C)NC(=O)CSC[C@@H](C(=O)NCCOCCOCCOCCOCCC(N)=O)NC(=O)[C@H](Cc2ccc(C(=O)O)cc2)N(C)C(=O)[C@H](Cc2cccc(C(=O)NCCOCCOCCOCCOCCC(=O)O)c2)NC(=O)[C@H](CCCNC(=N)N)NC(=O)[C@H](CCCCN)NC(=O)[C@H]([C@@H](C)CC)NC1=O [compound 121] ({CH2CO}-AV[NMeF]V[NMeW]NYYIIKR[X1](PEG4)[NMePhe(4-COOH)]C[PEG4]-NH2; thioether N-15) | Kd (peptide with the linker named in the table, read-out: hTfR SPR pH7.4 KD): 1.84 nM
8 | – | – | CCC(CC)[C@@H]1NC(=O)[C@H](Cc2ccc(O)cc2)NC(=O)[C@H](Cc2ccc(O)cc2)NC(=O)[C@H](CC(N)=O)NC(=O)[C@H](Cc2c[nH]c3ccccc23)N(C)C(=O)[C@H](C(C)C)NC(=O)[C@H](Cc2ccccc2)N(C)C(=O)[C@H](C(C)C)NC(=O)[C@H](C)NC(=O)CSC[C@@H](C(=O)NCC(=O)N[C@@H](CCCCN=[N+]=[N-])C(N)=O)NC(=O)[C@H](Cc2ccc(O)cc2)N(C)C(=O)[C@H](Cc2cccc(C(=O)NCCOCCOCCOCCOCCC(=O)O)c2)NC(=O)[C@H](CCCNC(=N)N)NC(=O)[C@H](CCCCN)NC(=O)[C@H]([C@@H](C)CC)NC1=O [compound 195] ({CH2CO}-AV[NMeF]V[NMeW]NYY[Nva(3-Et)]IKR[X1](PEG4)[NMeY]CG[Lys(N3)]-NH2; thioether N-15) | Kd (Table 1-3-2-2, read-out: hTfR SPR pH7.4 KD): 5.77 nM
9 | 81.6 | – | CC[C@H](C)[C@@H]1NC(=O)[C@H](Cc2ccc(OC)cc2)NC(=O)[C@H](Cc2ccc(N)nc2)NC(=O)[C@H](CC(N)=O)NC(=O)[C@H](Cc2cnc3ccccn23)NC(=O)[C@H](C(C)C)NC(=O)[C@H](Cc2cccc(Cl)c2)N(C)C(=O)[C@H](C(C)C)NC(=O)[C@H](C)NC(=O)CSC[C@@H](C(=O)NCC(=O)N[C@H](CCC(=O)O)C(=O)N[C@H](CCC(=O)O)C(=O)N[C@H](CCC(=O)O)C(=O)N[C@H](CO)C(=O)N[C@H](CO)C(=O)N[C@@H](CCCCN=[N+]=[N-])C(N)=O)NC(=O)[C@H](Cc2ccc(C(=O)O)cc2)N(C)C(=O)[C@H](Cc2ccncc2)NC(=O)[C@H](CCCNC(=N)N)NC(=O)[C@H](CCCNC(=N)N)NC(=O)[C@H]([C@@H](C)CC)NC1=O [compound 200] | –
